Test [1] relates to HCV sub-genomic replicon in GS4.3 cells (HuH-7 hepatoma cells). Nature of the test: Quantitation by ELISA of Neomycin phosphotransferase II (NPTII) in the HCV sub-genomic replicon, GS4.3. The test is classed as cell-based, hepatitis C virus. The note with it: Hepatitis C virus, Huh-7. Put shortly:
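Replicon-bearing HuH-7 (GS4.3) cells were exposed to compounds for 72 h in G418-free medium, top final concentration 10 μM, 1% DMSO. Lysates went to an NPTII ELISA read at 450 nm. Signal was normalised to DMSO-treated wells and EC50 was derived by four-parameter curve fitting.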

In test [2] the target is T1, full-length NS3/NS4A-2 (HCV NS3 protease) (Hepatitis C virus genotype 1a, UniProt P27958).
T1 construct: Recombinant E. coli or Baculovirus full-length NS3 was diluted to 3.33 μM with assay buffer; made in house; host or cells: E. coli or baculovirus (BV) expression system
T1 sequence (P27958 1027-1657): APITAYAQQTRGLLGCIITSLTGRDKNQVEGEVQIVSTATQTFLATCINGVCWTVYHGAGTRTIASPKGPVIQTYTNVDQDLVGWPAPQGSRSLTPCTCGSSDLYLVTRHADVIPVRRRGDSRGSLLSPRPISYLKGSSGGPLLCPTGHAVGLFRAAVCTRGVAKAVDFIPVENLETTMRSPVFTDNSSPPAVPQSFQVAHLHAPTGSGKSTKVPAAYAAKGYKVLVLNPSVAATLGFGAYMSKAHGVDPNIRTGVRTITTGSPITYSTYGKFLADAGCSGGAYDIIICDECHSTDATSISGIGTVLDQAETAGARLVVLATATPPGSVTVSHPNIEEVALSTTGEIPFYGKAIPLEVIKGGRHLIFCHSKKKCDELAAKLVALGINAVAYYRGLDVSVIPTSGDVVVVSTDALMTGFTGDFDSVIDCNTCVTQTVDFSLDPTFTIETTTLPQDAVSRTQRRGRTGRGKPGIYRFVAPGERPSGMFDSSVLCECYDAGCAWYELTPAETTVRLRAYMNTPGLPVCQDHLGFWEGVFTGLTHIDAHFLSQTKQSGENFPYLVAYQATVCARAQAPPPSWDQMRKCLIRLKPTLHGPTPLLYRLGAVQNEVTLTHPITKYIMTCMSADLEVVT
Nature of the test: NS3-NS4 protease assay / NS3 inhibition assay (RETS1 substrate, fluorescence kinetic read). The test is classed as biochemical. Put shortly: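 Ki values come from IC50 fits corrected via Ki=IC50/(1+[S]/Km), with Km 2.03 μM for E. coli and 1.74 μM for baculovirus full-length NS3. Enzyme (2 or 3 nM NS3, respectively, complexed with NS4A-2) sat with compound, top concentration 50 microM, for 10 min at room temperature. Cleavage of RETS1 (8 μM working solution) was then followed by fluorescence (335/495 nm) over 30 min.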

Setting [3] is: GS4.3 cells, 72 h incubation, NPTII ELISA, read-out: Replicon EC50.
[4] abbreviates: recombinant E. coli or Baculovirus full-length NS3 with NS4A-2, read-out: NS3-NS4 IC50.

Where two headings read alike, the source gives them in different places. A value given as a limit tells only on which side of the number the result lay.

By EC50 is commonly meant the concentration at which the effect is half-maximal. Usually IC50 stands for the concentration at which inhibition is half-maximal.

Regarding `CC(C)(C)OC(=O)N[C@H]1CCC(F)(F)CC/C=C\[C@@H]2C[C@@]2(C(=O)NS(=O)(=O)C2CC2)NC(=O)[C@@H]2C[C@@H](OC(=O)N3Cc4ccccc4C3)CN2C1=O` [Compound 1009], in test [1] (setting [3]), the 50% effective concentration (EC50) was below 100 nM. In addition, in test [2] (setting [4]), the IC50 is below 100 nM.
For `N[C@H]1CCC(F)(F)CC/C=C\[C@@H]2C[C@@]2(C(=O)NS(=O)(=O)C2CC2)NC(=O)[C@@H]2C[C@@H](OC(=O)N3Cc4ccccc4C3)CN2C1=O` [Compound 1011], the EC50 in test [1] (setting [3]) was below 1000 nM. Moreover, the IC50 in test [2] (setting [4]) is below 100 nM.
In the case of `CC(C)OC(=O)N[C@H]1CCC(F)(F)CC/C=C\[C@@H]2C[C@@]2(C(=O)NS(=O)(=O)C2CC2)NC(=O)[C@@H]2C[C@@H](OC(=O)N3Cc4ccccc4C3)CN2C1=O` [Compound 1012], the half-maximal effective concentration (EC50) in test [1] (setting [3]) is below 100 nM. Further, in test [2] (setting [4]), the concentration for half-maximal inhibition (IC50) was below 100 nM.
`CC(C)(C)OC(=O)N[C@H]1CCC(F)(F)CC/C=C\[C@@H]2C[C@@]2(C(=O)O)NC(=O)[C@@H]2C[C@@H](OC(=O)N3CCc4ccccc4C3)CN2C1=O` [Compound 1013]: the EC50 in test [1] (setting [3]) was below 100 nM. Also, the IC50 in test [2] (setting [4]) was below 100 nM.
Consider `CC(C)(C)OC(=O)N[C@H]1CCC(F)(F)CC/C=C\[C@@H]2C[C@@]2(C(=O)NS(=O)(=O)C2CC2)NC(=O)[C@@H]2C[C@@H](OC(=O)N3CCc4ccccc4C3)CN2C1=O` [Compound 1014], for which the EC50 in test [1] (setting [3]) was below 100 nM. Also, in test [2] (setting [4]), the IC50 is below 100 nM.
Turning to `CN(C)S(=O)(=O)NC(=O)[C@@]12C[C@H]1/C=C\CCC(F)(F)CC[C@H](NC(=O)OC(C)(C)C)C(=O)N1C[C@H](OC(=O)N3Cc4cccc(F)c4C3)C[C@H]1C(=O)N2` [Compound 1015], the EC50 in test [1] (setting [3]) is below 100 nM. In addition, the IC50 in test [2] (setting [4]) is below 100 nM.
As for `CN(C)S(=O)(=O)NC(=O)[C@@]12C[C@H]1CCCCC(F)(F)CC[C@H](NC(=O)OC(C)(C)C)C(=O)N1C[C@H](OC(=O)N3Cc4cccc(F)c4C3)C[C@H]1C(=O)N2` [Compound 1016], the EC50 in test [1] (setting [3]) was below 100 nM. For the same molecule, the 50% inhibitory concentration (IC50) in test [2] (setting [4]) is below 100 nM.
In the case of `CC(C)(C)OC(=O)N[C@H]1CCC(O)CC/C=C\[C@@H]2C[C@@]2(C(=O)O)NC(=O)[C@@H]2C[C@@H](OC(=O)N3Cc4cccc(F)c4C3)CN2C1=O` (stereo partly shown) [Compound 1017], the EC50 in test [1] (setting [3]) was above 10000 nM. In addition, in test [2] (setting [4]), the IC50 is below 1000 nM.
On the same counts, the results for `CC(C)(C)OC(=O)N[C@H]1CCCOC/C=C\[C@@H]2C[C@@]2(C(=O)NCC2CC2)NC(=O)[C@@H]2C[C@@H](OC(=O)N3Cc4cccc(F)c4C3)CN2C1=O` [Compound 1019] are below 1000 nM and below 100 nM.
For the molecule `CC(C)(C)OC(=O)N[C@H]1COCCC/C=C\[C@@H]2C[C@@]2(C(=O)NS(=O)(=O)C2CC2)NC(=O)[C@@H]2C[C@@H](OC(=O)N3Cc4cccc(F)c4C3)CN2C1=O` [Compound 1020, (2R,6S,13aS,14aR,16aS,Z)-6-(tert-butoxycarbonylamino)-14a-(cyclopropylsulfonylcarbamoyl)-5,16-dioxo-2,3,5,6,7,9,10,11,13a,14,14a,15,16,16a-tetradecahydro-1H-cyclopropa(i)pyrrolo[1,2-e][1,5,8]oxadiazacyclopentadecin-2-yl 4-fluoroisoindoline-2-carboxylate], the EC50 in test [1] (setting [3]) is below 100 nM. For the same molecule, the IC50 in test [2] is below 100 nM.
Regarding `CC(C)(C)OC(=O)N[C@H]1COCCCCC[C@@H]2C[C@@]2(C(=O)NS(=O)(=O)C2CC2)NC(=O)[C@@H]2C[C@@H](OC(=O)N3Cc4cccc(F)c4C3)CN2C1=O` [Compound 1022, (2R,6S,13aR,14aR,16aS)-6-(tert-butoxycarbonylamino)-14a-(cyclopropylsulfonylcarbamoyl)-5,16-dioxohexadecahydro-1H-cyclopropa(i)pyrrolo[1,2-e][1,5,8]oxadiazacyclopentadecin-2-yl 4-fluoroisoindoline-2-carboxylate], in test [1] (setting [3]), the EC50 is below 100 nM. Besides, the IC50 in test [2] (setting [4]) is below 100 nM.
Consider `CC(C)(C)OC(=O)N[C@H]1CCCOCCC[C@@H]2C[C@@]2(C(=O)NS(=O)(=O)C2CC2)NC(=O)[C@@H]2C[C@@H](OC(=O)N3Cc4cccc(F)c4C3)CN2C1=O` [Compound 1023, (2R,6S,13aR,14aR,16aS)-6-(tert-butoxycarbonylamino)-14a-(cyclopropylsulfonylcarbamoyl)-5,16-dioxohexadecahydro-1H-cyclopropa(e)pyrrolo[2,1-i][1,7,10]oxadiazacyclopentadecin-2-yl 4-fluoroisoindoline-2-carboxylate], for which the EC50 in test [1] (setting [3]) was below 1000 nM. In test [2], this molecule displayed an IC50 below 100 nM.
In the case of `CC(C)(C)OC(=O)N[C@H]1COCCC/C=C\[C@@H]2C[C@@]2(C(=O)O)NC(=O)[C@@H]2C[C@@H](OC(=O)N3Cc4cccc(Cl)c4C3)CN2C1=O` [Compound 1024], in test [1] (setting [3]), the EC50 is below 100 nM. Moreover, the IC50 in test [2] (setting [4]) was below 100 nM.
As to `CC(C)(C)OC(=O)N[C@H]1CCOCC/C=C\[C@@H]2C[C@@]2(C(=O)O)NC(=O)[C@@H]2C[C@@H](OC(=O)N3Cc4cccc(F)c4C3)CN2C1=O` [Compound 1026], the EC50 in test [1] (setting [3]) was below 10000 nM. The IC50 in test [2] (setting [4]) is below 100 nM.
As to `CC(C)(C)OC(=O)N[C@H]1CCOCC/C=C\[C@@H]2C[C@@]2(C(=O)NS(=O)(=O)C2CC2)NC(=O)[C@@H]2C[C@@H](OC(=O)N3Cc4cccc(F)c4C3)CN2C1=O` [Compound 1027, (2R,6S,13aS,14aR,16aS,Z)-6-(tert-butoxycarbonylamino)-14a-(cyclopropylsulfonylcarbamoyl)-5,16-dioxo-2,3,5,6,7,8,10,11,13a,14,14a,15,16,16a-tetradecahydro-1H-cyclopropa(j)pyrrolo[1,2-f][1,6,9]oxadiazacyclopentadecin-2-yl 4-fluoroisoindoline-2-carboxylate], the EC50 in test [1] (setting [3]) is below 100 nM. Besides, the IC50 in test [2] is below 100 nM.
As to `CC(C)(C)OC(=O)N[C@H]1CCOCCCC[C@@H]2C[C@@]2(C(=O)NS(=O)(=O)C2CC2)NC(=O)[C@@H]2C[C@@H](OC(=O)N3Cc4cccc(F)c4C3)CN2C1=O` [Compound 1028, (2R,6S,13aR,14aR,16aS)-6-(tert-butoxycarbonylamino)-14a-(cyclopropylsulfonylcarbamoyl)-5,16-dioxohexadecahydro-1H-cyclopropa(j)pyrrolo[1,2-f][1,6,9]oxadiazacyclopentadecin-2-yl 4-fluoroisoindoline-2-carboxylate], the EC50 in test [1] (setting [3]) was below 100 nM. Besides, in test [2] (setting [4]), the IC50 is below 100 nM.
As for `CC(C)(C)OC(=O)N[C@H]1CCNCC/C=C\[C@@H]2C[C@@]2(C(=O)NS(=O)(=O)C2CC2)NC(=O)[C@@H]2C[C@@H](OC(=O)N3Cc4cccc(F)c4C3)CN2C1=O` [Compound 1031], the EC50 in test [1] (setting [3]) is below 1000 nM. Moreover, the IC50 in test [2] (setting [4]) is below 100 nM.
In the same order, the values of `CC(C)(C)OC(=O)N[C@H]1CCN(CC(F)(F)F)CC/C=C\[C@@H]2C[C@@]2(C(=O)NS(=O)(=O)C2CC2)NC(=O)[C@@H]2C[C@@H](OC(=O)N3Cc4cccc(F)c4C3)CN2C1=O` [Compound 1032] are below 100 nM and below 100 nM.
In the same order, the values of `O=C(N[C@H]1CCCCC/C=C\[C@@H]2C[C@@]2(C(=O)NS(=O)(=O)C2CC2)NC(=O)[C@H]2Cc3cc(Oc4cccc(Cl)c4)ccc3CN2C1=O)OC1CCCC1` [Compound 2005, Cyclopentyl (1aS,9S,17aR,19aR,Z)-15-(3-chlorophenoxy)-19a-(cyclopropylsulfonylcarbamoyl)-10,18-dioxo-1a,4,5,6,7,8,9,10,12,17,17a,18,19,19a-tetradecahydro-1H-11,14-diaza-bicyclo[13.1.0]hexadeca-1(15), 2-dieno[11,12-b]isoquinolin-9-ylcarbamate] are below 1000 nM and below 100 nM.
In the same order, the values of `CC(C)(C)OC(=O)N[C@H]1CCCCC/C=C\[C@@H]2C[C@@]2(C(=O)NS(=O)(=O)C2CC2)NC(=O)C2Cc3cc(Oc4cccc(Cl)c4)ccc3CN2C1=O` (stereo partly drawn) [Compound 2007, tert-Butyl (1aS,9S,19aR,Z)-15-(3-chlorophenoxy)-19a-(cyclopropylsulfonylcarbamoyl)-10,18-dioxo-1a,4,5,6,7,8,9,10,12,17,17a,18,19,19a-tetradecahydro-1H-11,14-diaza-bicyclo[13.1.0]hexadeca-1(15), 2-dieno[11,12-b]isoquinolin-9-ylcarbamate] are below 10000 nM and below 1000 nM.
Consider `CC(C)(C)OC(=O)N[C@H]1CCCCC/C=C\[C@@H]2C[C@@]2(C(=O)NS(=O)(=O)C2CC2)NC(=O)C2Cc3cc(Oc4cccc(C(F)(F)F)c4)ccc3CN2C1=O` (stereo partly drawn) [Compound 2008, tert-Butyl (1aS,9S,19aR,Z)-19a-(cyclopropylsulfonylcarbamoyl)-10,18-dioxo-15-(3-(trifluoromethyl)phenoxy)-1a,4,5,6,7,8,9,10,12,17,17a,18,19,19a-tetradecahydro-1H-1,14-diaza-bicyclo[13.1.0]hexadeca-1(15), 2-dieno[11,12-b]isoquinolin-9-ylcarbamate], for which the EC50 in test [1] (setting [3]) is below 10000 nM. For the same molecule, the IC50 in test [2] (setting [4]) is below 1000 nM.
As for `COc1ccc(CC(=O)N[C@H]2CCCCC/C=C\[C@@H]3C[C@@]3(C(=O)NS(=O)(=O)C3CC3)NC(=O)[C@@H]3CCCN3C2=O)cc1` [Compound 2138, (1S,4R,6S,14S)N—((Z)-4-Cyclopropanesulfonylaminocarbonyl-2,15-dioxo-3,16-diaza-tricyclo[14.3.0.0^4,6]nonadec-7-ene-14-yl)-2-(4-methoxy-phenyl)-acetamide], in test [1] (Table 26, read-out: EC50), the EC50 is below 1000 nM. In test [2] (setting [4]), the IC50 is above 10000 nM.
In the same order, the values of `O=C(Cc1ccc(C(F)(F)F)cc1)N[C@H]1CCCCC/C=C\[C@@H]2C[C@@]2(C(=O)NS(=O)(=O)C2CC2)NC(=O)C2CCCN2C1=O` (stereo partly shown) [Compound 2142] are above 10000 nM and below 10000 nM.

The values are drawn from patent publication US7829665B2 (priority 2005, dated 2010).
